In patent US9598387B2 (Southern Research Institute, priority 2012, dated 2017):

Legend:
[1] = biological target: T1, human D3 dopamine receptor (Homo sapiens (Human), UniProt P35462); assay: Radioligand binding (125I-IABN competition), D3; conditions: for Ki: 125I-IABN competition, HEK cell membranes expressing human D3; for D2/D3 (D3 selectivity ratio, D2 Ki/D3 Ki): calculated D2 Ki/D3 Ki
Method: (§1) The affinities of the target compounds were determined using radioligand binding experiments. […] Competition curves were modeled for a single site. Data from competition dose-response curves were analyzed using Tablecurve program (Jandel). IC50 values were converted to equilibrium dissociation constants (Ki values) using the Cheng and Prusoff correction.

[2] = biological target: T1, human D3 dopamine receptor; assay: Whole Cell Adenylyl Cyclase Assay, D3; format: cell-based; conditions: inhibition of forskolin (100 μM) stimulated cAMP, normalized to quinpirole; compound conc ≥10× Ki (per compound); mean ± S.E.M.
Method: The intrinsic activity of the compounds was evaluated by determining their ability to inhibit forskolin-dependent (100 μM) stimulation of adenylyl cyclase activity using a whole cell assay. A whole cell-cyclic AMP accumulation assay was performed with stably transfected HEK cells expressing human D2 or D3 dopamine receptors. This assay is an adaptation of an earlier published method (Su et al., Cyclic Nucleotide Res. 1976, 2, 257-285). Details regarding this method have been published (Chu, W. et al. Bioorg. Med. Chem. 2005, 13, 77-87; Taylor, M. et al. Synapse 2010, 64, 251-266). Confluent (60-80%) HEK cells transfected with recombinant D2-like dopamine receptors were grown in DMEM/10% fetal calf serum containing geneticin in […] flasks. The endogenous ATP pool is radioactively labeled by preincubating the cells in serum-free DMEM/25 mM Hepes medium containing 2 μCi/mL of [2,8-^3H]-adenine (20-Ci/mmol) in a 5% CO2 incubator at 37° C. for 75 min. The radioactive medium was removed by aspiration. Serum-free DMEM (5.6 mL) containing 25 mM HEPES, pH 7.4, and 0.1 mM of the phosphodiesterase inhibitor isobutylmethylxanthine was added to the flask. A […] aliquot of cells was removed and added to 50 μL of forskolin (100 μM) and 50 μL of test drug or quinpirole in DMEM-HEPES. The cells were incubated for 20 min at 37° C. (vortexing every 5 min). The reaction was terminated by the addition of 0.5 mL of 10% trichloroacetic acid (w/v) containing 1.0 mM unlabeled cyclic AMP as a recovery standard. Both the [^3H]-cyclic AMP and the [^3H]-ATP fractions were collected following separation using columns of Dowex AG-50W-X4 and alumina. The final yield of [^3H]-cyclic AMP is corrected for column recovery of unlabeled cyclic AMP determined spectrophotometrically (OD259). The results are reported as percent conversion of [^3H]-ATP into [^3H]-cyclic AMP. The values for the percent inhibition are reported as the actual percent of inhibition of the ^3H-cAMP accumulation relative to the assay performed in the absence of a test compound, minus basal activity. […] The percent maximum response is the value for the inhibition normalized to the value for the full agonist quinpirole.

[3] = biological target: human D2-long dopamine receptor (Homo sapiens (Human), UniProt P14416); assay: Radioligand binding (125I-IABN competition), D2; conditions: HEK cell membranes expressing human D2-long
Chain of human D2-long dopamine receptor (P14416 whole entry): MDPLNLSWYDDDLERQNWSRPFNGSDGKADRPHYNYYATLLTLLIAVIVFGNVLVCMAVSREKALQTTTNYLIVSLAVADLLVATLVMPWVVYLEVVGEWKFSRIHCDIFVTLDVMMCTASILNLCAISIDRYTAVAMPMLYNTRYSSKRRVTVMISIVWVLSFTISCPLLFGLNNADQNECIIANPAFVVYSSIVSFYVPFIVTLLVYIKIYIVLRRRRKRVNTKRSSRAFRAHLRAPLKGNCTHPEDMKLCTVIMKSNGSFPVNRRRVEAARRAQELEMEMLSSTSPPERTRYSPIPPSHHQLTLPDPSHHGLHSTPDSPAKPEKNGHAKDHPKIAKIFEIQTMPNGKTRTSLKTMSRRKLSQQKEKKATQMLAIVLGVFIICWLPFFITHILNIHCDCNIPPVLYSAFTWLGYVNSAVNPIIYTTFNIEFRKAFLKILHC
Method: as §1

human D2 receptors = human D2 receptors (Homo sapiens (Human), UniProt P14416); assay: D2 Mitogenesis Functional Assay (3H-thymidine uptake, CHOp-D2 cells); format: cell-based; conditions: for Emax at 10 µM: % maximum stimulation vs quinpirole (100%), read-out: D2 Agonist Emax; for IC50: inhibition of quinpirole (30 nM final) stimulation of mitogenesis, read-out: D2 Antagonist IC50
Chain of human D2 receptors (P14416 whole entry): as above
Method: (§2) These assays are based on ^3H-thymidine uptake by cells that are proliferating.
CHO cells expressing human D2 receptors (CHOp-D2 cells) were maintained in alpha-MEM with 10% FCS, 0.05% pen-strep, and 200 μg/mL of G418. […] The cells were incubated at 37° C. in alpha-MEM with 10% FCS. After 48-72 hours, the cells were rinsed twice with serum-free alpha-MEM and incubated for 24 hours at 37° C. Serial dilutions of test compounds were made by the Biomek robotics system in serum-free alpha-MEM. In the functional assay for agonism, the medium was removed and replaced with 100 μL of test compound in serum-free alpha-MEM. In the antagonist assay, the serial dilution of the putative antagonist test compound was added in 90 μL (1.1× of final concentration) and 300 nM quinpirole (30 nM final) was added in […]. After another 24-hour incubation at 37° C., 0.25 μCi of [^3H]thymidine in alpha-MEM supplemented with 10% FCS was added to each well and the plates were further incubated for 2 hours at 37° C. The cells were trypsinized by addition of 10× trypsin solution (1% trypsin in calcium-magnesium-free phosphate-buffered saline) and the plates were filtered and counted as usual. Quinpirole was run as an internal control and dopamine was included for comparative purposes. Butaclamol was run as the standard antagonist.

D3R = D3R (Homo sapiens (Human), UniProt P35462); assay: D3 Mitogenesis Functional Assay (3H-thymidine uptake, CHOp-D3 cells); format: cell-based; conditions: for Emax at 10 µM: % maximum stimulation vs quinpirole (100%), read-out: D3 Agonist Emax; for IC50: inhibition of quinpirole (30 nM final) stimulation of mitogenesis, read-out: D3 Antagonist IC50
Chain of D3R (P35462 whole entry): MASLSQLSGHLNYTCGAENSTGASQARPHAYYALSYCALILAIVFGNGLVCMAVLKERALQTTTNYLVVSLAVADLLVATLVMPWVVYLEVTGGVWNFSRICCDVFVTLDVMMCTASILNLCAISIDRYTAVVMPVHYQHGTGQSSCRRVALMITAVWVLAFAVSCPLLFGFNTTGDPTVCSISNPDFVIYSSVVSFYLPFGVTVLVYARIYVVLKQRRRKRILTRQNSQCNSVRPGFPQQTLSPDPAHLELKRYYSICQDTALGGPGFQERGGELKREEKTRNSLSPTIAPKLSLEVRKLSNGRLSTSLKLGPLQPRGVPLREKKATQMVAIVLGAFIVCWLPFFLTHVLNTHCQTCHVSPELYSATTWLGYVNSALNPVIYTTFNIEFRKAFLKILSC
Method: as §2
CHO cells expressing human D3 receptors (CHOp-D3 cells) were maintained in alpha-MEM with 10% fetal bovine serum (FBS, Atlas Biologicals), 0.05% pen-strep, and 200 μg/ml of G418. […] The cells are incubated at 37° C. in alpha-MEM with 10% FBS. After 48-72 hours, the cells are rinsed twice with serum-free alpha-MEM and incubated for 24 hours at 37° C. Serial dilutions of test compounds were made by the Biomek robotics system in serum-free alpha-MEM. In the functional assay for agonism, the medium is removed and replaced with 100 μL of test compound in serum-free alpha-MEM. In the antagonist assay, the serial dilution of the putative antagonist test compound was added in 90 μL (1.1× of final concentration) and 300 nM quinpirole (30 nM final) was added in 10 uL. After another 16-hour incubation at 37° C., 0.25 μCi of [^3H]thymidine in alpha-MEM supplemented with 10% FBS was added to each well and the plates were further incubated for 2 hours at 37° C. The cells were trypsinized by addition of 10× trypsin solution (1% trypsin in calcium-magnesium-free phosphate-buffered saline) and the plates were filtered and counted as usual. Quinpirole was run as an internal control and dopamine was included for comparative purposes. Butaclamol was run as the standard antagonist. Data were analyzed using GraphPAD Prism and agonist potency was expressed as EC50 values or % stimulation and antagonist potency was expressed as IC50 values. In these assays, based on the % maximum stimulation as compared to the standard agonist quinpirole (100%) the compounds were classified into following categories: ≧90% full agonist; 70-90% partial to full agonist; <70% partial agonist; 0-20% potential antagonist.

T1 sequence (P35462 whole entry): as above

| SMILES | Ki [1] | D2/D3 (D3 selectivity ratio, D2 Ki/D3 Ki) [1] | D3 Cyclase % Inhibition Normalized [2] | Ki [3] | Emax at 10 µM (human D2 receptors) | IC50 (human D2 receptors) | Emax at 10 µM (D3R) | IC50 (D3R) | D3 Antagonist Imax (D3R; inhibition of quinpirole stimulation of mitogenesis) |
| --- | --- | --- | --- | --- | --- | --- | --- | --- | --- |
| Cc1nc(N2CCN(CCCCNC(=O)N3CCN(c4ccccc4)CC3)CC2)cc(C(C)(C)C)n1 [Compound 6, N-(4-(4-(6-(tert-Butyl)-2-methylpyrimidin-4-yl)piperazin-1-yl)butyl)-4-phenylpiperazine-1-carboxamide] | 0.0292 ± 0.0053 µM | 442 | 26.4 ± 4.6% | 12.9 ± 2.51 µM | – | – | – | – | – |
| CC(C)(C)c1nc(N2CCN(CCCCNC(=O)N3CCN(c4ccccc4)CC3)CC2)c2ccccc2n1 [Compound 13, N-(4-(4-(2-(tert-Butyl)quinazolin-4-yl)piperazin-1-yl)butyl)-4-phenylpiperazine-1-carboxamide] | 0.0431 ± 0.0048 µM | 94 | 61.9 ± 6.4% | 4.04 ± 0.965 µM | – | – | – | – | – |
| CC(C)(C)c1nc(N2CCN(CCCCNC(=O)C3CCC(c4ccccc4)CC3)CC2)cc(C(F)(F)F)n1 (stereo not drawn) [Compound 103, N-(4-(4-(2-(tert-Butyl)-6-(trifluoromethyl)pyrimidin-4-yl)piperazin-1-yl)butyl)-4-phenylcyclohexanecarboxamide] | – | – | 51.6 ± 13.4% | – | – | – | – | – | – |
| CC(C)(C)c1nc(N2CCN(CCCCNC(=O)c3cn4ccccc4n3)CC2)c2ccccc2n1 [Compound 123, N-(4-(4-(2-(tert-Butyl)quinazolin-4-yl)piperazin-1-yl)butyl)imidazo[1,2-a]pyridine-2-carboxamide] | 0.0782 ± 0.0192 µM | – | – | 1.45 ± 0.275 µM | – | – | – | – | – |
| O=C(NCCCCN1CCN(c2ccnc3cc(C(F)(F)F)ccc23)CC1)c1cn2ccccc2n1 [Compound 124, N-(4-(4-(7-(Trifluoromethyl)quinolin-4-yl)piperazin-1-yl)butyl)imidazo[1,2-a]pyridine-2-carboxamide] | 0.0987 ± 0.0243 µM | – | – | 4.98 ± 0.843 µM | – | – | – | – | – |
| O=C(NCCCCN1CCN(c2ccnc3ccccc23)CC1)c1nc2ccccn2c1Br [Compound 128, 3-Bromo-N-(4-(4-(quinolin-4-yl)piperazin-1-yl)butyl)imidazo[1,2-a]pyridine-2-carboxamide] | 0.285 ± 0.077 µM | 8 | – | 2.33 ± 0.785 µM | – | – | – | – | – |
| O=C(NCCCCN1CCN(c2ccnc3ccccc23)CC1)c1nc2ccccn2c1Cl [Compound 129, 3-Chloro-N-(4-(4-(quinolin-4-yl)piperazin-1-yl)butyl)imidazo[1,2-a]pyridine-2-carboxamide] | 0.323 ± 0.075 µM | 11 | – | 3.56 ± 1.95 µM | – | – | – | – | – |

More lines, now with the values ahead:

| Ki [1] | D2/D3 (D3 selectivity ratio, D2 Ki/D3 Ki) [1] | D3 Cyclase % Inhibition Normalized [2] | Ki [3] | Emax at 10 µM (human D2 receptors) | IC50 (human D2 receptors) | Emax at 10 µM (D3R) | IC50 (D3R) | D3 Antagonist Imax (D3R; inhibition of quinpirole stimulation of mitogenesis) | SMILES |
| --- | --- | --- | --- | --- | --- | --- | --- | --- | --- |
| 0.0118 ± 0.0011 µM | 37 | – | 0.435 ± 0.0434 µM | < 1% | 0.205 ± 0.048 µM | 14% | 0.051 ± 0.021 µM | – | CC(C)(C)c1nc(N2CCN(CCCCNC(=O)c3cn4cccnc4n3)CC2)cc(C(F)(F)F)n1 [Compound 114, N-(4-(4-(2-(tert-Butyl)-6-(trifluoromethyl)pyrimidin-4-yl)piperazin-1-yl)butyl)imidazo[1,2-a]pyrimidine-2-carboxamide] |
| – | – | 31.5 ± 7.0% | 0.655 ± 0.0806 µM | < 1% | 1.16 ± 0.11 µM | < 1% | – | – | CC(C)(C)c1nc(N2CCN(CCCCNC(=O)c3cn4nc(Cl)ccc4n3)CC2)cc(C(F)(F)F)n1 [Compound 116, N-(4-(4-(2-(tert-Butyl)-6-(trifluoromethyl)pyrimidin-4-yl)piperazin-1-yl)butyl)-6-chloroimidazo[1,2-b]pyridazine-2-carboxamide] |
| 0.0205 ± 0.0035 µM | 28 | – | 0.572 µM | – | – | < 20% | 0.12 ± 0.022 µM | 97.2% | O=C(NCCCCN1CCN(c2ccnc3ccccc23)CC1)c1cn2ccccc2n1 [Compound 117, N-(4-(4-(Quinolin-4-yl)piperazin-1-yl)butyl)imidazo[1,2-a]pyridine-2-carboxamide] |
| 0.0454 ± 0.0113 µM | – | – | 0.934 ± 0.222 µM | – | – | – | – | – | CC(C)(C)c1nc(N2CCN(CCCCNC(=O)c3cn4c(CO)cccc4n3)CC2)cc(C(F)(F)F)n1 [Compound 119, N-(4-(4-(2-(tert-Butyl)-6-(trifluoromethyl)pyrimidin-4-yl)piperazin-1-yl)butyl)-5-(hydroxymethyl)imidazo[1,2-a]pyridine-2-carboxamide] |
| 0.0188 ± 0.0035 µM | 19 | – | 0.361 µM | – | – | – | – | – | CC(C)(C)c1cc(N2CCN(CCCCNC(=O)c3cn4ccccc4n3)CC2)nc(C(C)(C)C)n1 [Compound 122, N-(4-(4-(2,6-Di-tert-butylpyrimidin-4-yl)piperazin-1-yl)butyl)imidazo[1,2-a]pyridine-2-carboxamide] |
| 0.161 µM | 8 | – | 1.26 ± 0.142 µM | – | – | – | – | – | O=C(NCCCCN1CCN(c2ccc3ccccc3n2)CC1)c1cn2cccnc2n1 [Compound 126, N-(4-(4-(Quinolin-2-yl)piperazin-1-yl)butyl)imidazo[1,2-a]pyrimidine-2-carboxamide] |
| 0.253 µM | 4 | – | 1.13 ± 0.0638 µM | – | – | – | – | – | O=C(NCCCCN1CCN(c2ncnc3ccccc23)CC1)c1cn2ccccc2n1 [Compound 127, N-(4-(4-(Quinazolin-4-yl)piperazin-1-yl)butyl)imidazo[1,2-a]pyridine-2-carboxamide] |
